Experimental data: PMC5814047, “Peptidic inhibitors of insulin-degrading enzyme with potential for dermatological applications discovered via phage display” (PLoS ONE, 2018)
Several values for one entry are separate records, joined by “and”; a condition that tells them apart may be missing. Identical values can stand only once. Each block holds one compound with its values, some of them ahead of it. Ends that are not written are not given here.

What was measured:
IDE [1] = biological target: T1, IDE (Homo sapiens, UniProt P14735); experiment: biochemical; details: for Ki: substrate recombinant human insulin 50 nM, Ki from IC50 with the Cheng-Prusoff equation
T1 construct: made in house; host or cells: bacteria
T1 sequence (P14735 1-1019): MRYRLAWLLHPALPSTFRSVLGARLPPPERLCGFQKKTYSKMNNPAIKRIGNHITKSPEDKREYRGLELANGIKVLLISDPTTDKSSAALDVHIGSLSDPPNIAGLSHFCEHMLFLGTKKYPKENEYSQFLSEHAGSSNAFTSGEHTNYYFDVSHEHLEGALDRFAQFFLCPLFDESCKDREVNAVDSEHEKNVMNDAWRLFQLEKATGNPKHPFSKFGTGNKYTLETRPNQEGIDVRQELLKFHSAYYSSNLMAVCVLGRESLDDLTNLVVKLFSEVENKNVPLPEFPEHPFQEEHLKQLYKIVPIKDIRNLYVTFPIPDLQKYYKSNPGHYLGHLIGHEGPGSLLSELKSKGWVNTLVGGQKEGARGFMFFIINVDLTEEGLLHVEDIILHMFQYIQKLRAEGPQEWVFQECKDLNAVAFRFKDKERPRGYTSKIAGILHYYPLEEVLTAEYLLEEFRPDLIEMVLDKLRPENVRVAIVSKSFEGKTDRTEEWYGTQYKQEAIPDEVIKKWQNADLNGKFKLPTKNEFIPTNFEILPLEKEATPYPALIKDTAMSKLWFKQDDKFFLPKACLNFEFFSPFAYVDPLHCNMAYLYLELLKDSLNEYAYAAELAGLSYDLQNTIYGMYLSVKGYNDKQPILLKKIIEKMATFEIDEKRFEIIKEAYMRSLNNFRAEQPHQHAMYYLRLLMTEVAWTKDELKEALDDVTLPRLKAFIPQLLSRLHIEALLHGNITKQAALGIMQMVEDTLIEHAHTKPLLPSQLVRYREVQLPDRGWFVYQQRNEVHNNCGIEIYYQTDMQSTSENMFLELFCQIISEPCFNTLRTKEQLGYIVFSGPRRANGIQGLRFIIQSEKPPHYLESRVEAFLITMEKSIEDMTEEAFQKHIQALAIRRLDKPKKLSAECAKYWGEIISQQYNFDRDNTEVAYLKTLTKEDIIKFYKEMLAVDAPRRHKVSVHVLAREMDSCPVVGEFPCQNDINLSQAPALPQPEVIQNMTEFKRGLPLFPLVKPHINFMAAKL
Text: The six selected peptide sequences (C7C-1, C7C-2, 12–1, 12–2, 12–3 and 12–4) were synthesized, together with a variety of modifications, yielding a total of 25 peptides (Table 1). For the 12-mer peptides, we synthesized variants of the parent peptides truncated at one or both termini, to test whether the entire sequence was necessary or not, in the hope that shorter, and thus less expensive, sequences might be effective. Other modifications included N-terminal acetylation and C-terminal amidation, included to mimic the charge state of the peptides when incorporated in the phage coat protein (Table 1). To assess the extent to which these peptide sequences inhibit IDE, we quantified their potency in protease activity assays using recombinant human IDE and two different substrates: FRET1, a fluorogenic peptide, and recombinant human insulin.
(§1) IDE activity was quantified by monitoring the degradation of Mca-[…](Dnp) (FRET1, 5 μM), fluoresceinated and biotinylated amyloid ß-protein (FAßB; 500 nM) or recombinant human insulin (50 nM) in PBS supplemented with 0.05% BSA. FRET1 degradation was measured by changes in fluorescence (λex = 340 nm, λem = 420 nm); FAßB degradation was monitored by fluorescence polarization (λex = 488 nm, λem = 525 nm), as described; and insulin degradation was quantified by ELISA. In vitro activity assays incorporated recombinant human IDE (1 nM) purified from bacteria. For quantitation of insulin degradation in primary murine skin fibroblasts, cells (1 x 10^5/well) were plated in 96-well plates and maintained in DMEM supplemented with 10% fetal bovine serum (FBS), 2mM glutamine, penicillin and streptomycin. After addition of insulin (10 nM or 100 nM), samples of conditioned medium were removed daily and quickly frozen, then insulin levels were quantified in parallel by ELISA according to manufacturer’s recommendations (Crystal Chem, Downers Grove, IL, USA). Assessment of the activity of P12-3A against a variety of matrix-metalloproteases was conducted using the Matrix Metalloproteinase (MMP) Inhibitor Profiling Kit, Fluorometric RED (Enzo Life Sciences, Inc., Farmingdale, NY, USA) according to manufacturer’s recommendations using the broad-spectrum MMP inhibitor, NNGH, as a positive control.

IDE [2] = biological target: T1, IDE; experiment: Vulnerability of peptides to degradation by IDE: 0 vs 4 h pre-incubation, then FRET1 assay; format: biochemical; details: for Ki: Cheng-Prusoff from IC50, FRET1 KM 10 uM, substrate 5 uM; for remaining activity at 0.12207 µM / remaining activity at 0.488281 µM / remaining activity at 1.95312 µM / remaining activity at 7.8125 µM / remaining activity at 31.25 µM / remaining activity at 125 µM / remaining activity at 500 µM: 4 h, read-out: Percent Activity (normalized initial velocity of FRET1 hydrolysis); for remaining activity at 0.12207 µM / remaining activity at 0.488281 µM / remaining activity at 1.95312 µM / remaining activity at 7.8125 µM / remaining activity at 31.25 µM / remaining activity at 125 µM / remaining activity at 500 µM / Percent Activity (normalized initial velocity of FRET1 hydrolysis): relative to DMSO-only controls; for IC50: FRET1 assay
Procedure: as §1, with “FRET1 degradation was measured by changes in fluorescence (λex = 340 nm, λem = 420 nm); FAßB degradation was monitored by fluorescence polarization (λex = 488 nm, λem = 525 nm), as described; and insulin degradation was quantified by ELISA.” left out

IDE [3] = biological target: T1, IDE; experiment: biochemical; details: for IC50: dose-response, FRET1; for IC50 <500 uM?: initial test at 500 uM; for remaining activity at 500 µM: individual replicates, read-out: Percent activity at 500 uM, Replicate 1-4; for Percent activity at 500 uM, Mean: N 4
Procedure: The six selected peptide sequences (C7C-1, C7C-2, 12–1, 12–2, 12–3 and 12–4) were synthesized, together with a variety of modifications, yielding a total of 25 peptides (Table 1). […] Other modifications included N-terminal acetylation and C-terminal amidation, included to mimic the charge state of the peptides when incorporated in the phage coat protein (Table 1).
as §1, with “FRET1 degradation was measured by changes in fluorescence (λex = 340 nm, λem = 420 nm); FAßB degradation was monitored by fluorescence polarization (λex = 488 nm, λem = 525 nm), as described; and insulin degradation was quantified by ELISA.” left out

[4] = 4-hr incubation, Cmpd 0.12207 uM, individual runs
[5] = 4-hr incubation, Cmpd 0.488281 uM, individual runs
[6] = 4-hr incubation, Cmpd 1.95312 uM, individual runs
[7] = 4-hr incubation, Cmpd 7.8125 uM, individual runs
[8] = 4-hr incubation, Cmpd 31.25 uM, individual runs
[9] = 4-hr incubation, Cmpd 125 uM, individual runs
[10] = 4-hr incubation, Cmpd 500 uM, individual runs
[11] = 4-hr incubation, individual replicates, read-out: IC50s
[12] = 4-hr incubation, mean of 2 replicates, read-out: IC50s, Mean
[13] = initial test, percent of initial velocity relative to DMSO-only controls
[14] = substrate FRET1 5 μM, Ki from IC50 with the Cheng-Prusoff equation, read-out: Ki FRET1
[15] = peptide at 10 uM, insulin 100 nM, normalized to DMSO-only and no-enzyme controls

- IC50 (IDE [1]; from initial test at 10 uM using insulin (100 nM), read-out: IC50 (summary of results, listed in Table 1)): > 10 µM
- Ki (IDE [1]): > 10 µM
- Ki (IDE [2]; 4-hr incubation): 515 µM
- remaining activity at 0.12207 µM (IDE [2]; [4]): 102%
- remaining activity at 0.488281 µM (IDE [2]; [5]): 91.2%
- remaining activity at 1.95312 µM (IDE [2]; [6]): 99.3%
- remaining activity at 7.8125 µM (IDE [2]; [7]): 97.1%
- remaining activity at 31.25 µM (IDE [2]; [8]): 90.2%
- remaining activity at 125 µM (IDE [2]; [9]): 47.6%
- remaining activity at 500 µM (IDE [2]; [10]): 20.6%
- IC50 (IDE [2]; 0-hr incubation (immediately after combining enzyme and peptide), individual runs, read-out: IC50s): 138 µM and 282 µM
- IC50 (IDE [2]; [11]): 791 µM and 755 µM
- IC50 (IDE [2]; [12]): 773 µM
- IC50 (IDE [3]; read-out: IC50s, Mean): 210 µM
- IC50 <500 uM? (IDE [3]): YES
- remaining activity at 500 µM (IDE [3]; [13]): 13.4%
- remaining activity at 500 µM (IDE [3]; judged as IC50 <100 uM?): 61.2%
- Ki (IDE [3]; [14]): > 100 µM
Compound: CC(=O)N[C@@H](Cc1c[nH]c2ccccc12)C(=O)N[C@@H](CC(=O)O)C(=O)N[C@@H](Cc1ccccc1)C(=O)N[C@@H](CCCNC(=N)N)C(=O)N[C@@H](CCC(N)=O)C(=O)N[C@@H](Cc1c[nH]c2ccccc12)C(=O)N[C@@H](Cc1c[nH]c2ccccc12)C(=O)N[C@@H](CCC(N)=O)C(N)=O [P12-1D]

- IC50 <10 uM? (IDE [1]; initial test at 10 uM using insulin (100 nM)): YES
- IC50 (IDE [1]; insulin ELISA assay, dose-response, Replicates 1-3, read-out: IC50s, individual replicates): 6.44 µM and 6.45 µM and 2.48 µM
- IC50 (IDE [1]; insulin ELISA assay, dose-response, N=3, read-out: IC50s, Mean): 5.12 µM
- Ki (IDE [1]): 2.6 ± 0.7 µM
- Ki (IDE [2]; 4-hr incubation): 43.5 µM
- remaining activity at 0.12207 µM (IDE [2]; [4]): 78.9%
- remaining activity at 0.488281 µM (IDE [2]; [5]): 81.8%
- remaining activity at 1.95312 µM (IDE [2]; [6]): 85.3%
- remaining activity at 7.8125 µM (IDE [2]; [7]): 83.2%
- remaining activity at 31.25 µM (IDE [2]; [8]): 35.7%
- remaining activity at 125 µM (IDE [2]; [9]): 51.3%
- remaining activity at 500 µM (IDE [2]; [10]): 27.1%
- IC50 (IDE [2]; [11]): 63.7 µM and 66.6 µM
- IC50 (IDE [2]; [12]): 65.2 µM
- Ki (IDE [3]; Cheng-Prusoff, KM 10 uM, substrate concentration 5 uM, read-out: Ki values, Mean): 4.25 µM
- IC50 (IDE [3]; individual runs, read-out: IC50s, Run 1-6): 6.41 µM and 2.96 µM and 9.75 µM
- IC50 (IDE [3]; read-out: IC50s, Mean): 6.37 µM
- IC50 <500 uM? (IDE [3]): YES
- remaining activity at 500 µM (IDE [3]; judged as IC50 <100 uM?): 17.7%
- Ki (IDE [3]; [14]): 4.2 ± 1.3 µM
Compound: WSPISGKFFQRF-NH2 [P12-4A]

- percent decrease in insulin detected by ELISA, Replicate 1 (IDE [1]; [15]): 111.9%
- percent decrease in insulin detected by ELISA, Replicate 2 (IDE [1]; [15]): 145.7%
- percent decrease in insulin detected by ELISA, Replicate 3 (IDE [1]; [15]): 105.6%
- percent decrease in insulin detected by ELISA, Replicate 4 (IDE [1]; [15]): 114.6%
- percent decrease in insulin detected by ELISA, Mean (IDE [1]; peptide at 10 uM, insulin 100 nM, normalized to DMSO-only and no-enzyme controls, N=4): 119.5%
- Percent Activity (normalized initial velocity of FRET1 hydrolysis) (IDE [2]; 0-hr incubation, Cmpd 0.12207 uM, individual runs): 87.1275% and 89.107% and 97.5567%
- Percent Activity (normalized initial velocity of FRET1 hydrolysis) (IDE [2]; 0-hr incubation, Cmpd 0.488281 uM, individual runs): 88.274% and 92.2277% and 96.9846%
- Percent Activity (normalized initial velocity of FRET1 hydrolysis) (IDE [2]; 0-hr incubation, Cmpd 1.95312 uM, individual runs): 91.5093% and 89.6687% and 99.5643%
- Percent Activity (normalized initial velocity of FRET1 hydrolysis) (IDE [2]; 0-hr incubation, Cmpd 7.8125 uM, individual runs): 83.3253% and 88.0997% and 90.5388%
- Percent Activity (normalized initial velocity of FRET1 hydrolysis) (IDE [2]; 0-hr incubation, Cmpd 31.25 uM, individual runs): 61.5604% and 65.1463% and 71.7432%
- Percent Activity (normalized initial velocity of FRET1 hydrolysis) (IDE [2]; 0-hr incubation, Cmpd 125 uM, individual runs): 22.5624% and 28.2506% and 30.6967%
- Percent Activity (normalized initial velocity of FRET1 hydrolysis) (IDE [2]; 0-hr incubation, Cmpd 500 uM, individual runs): 2.879% and 4.537% and 8.696%
- Percent Activity (normalized initial velocity of FRET1 hydrolysis) (IDE [2]; [4]): 96.239% and 102.101%
- Percent Activity (normalized initial velocity of FRET1 hydrolysis) (IDE [2]; [5]): 100.910% and 100.775%
- Percent Activity (normalized initial velocity of FRET1 hydrolysis) (IDE [2]; [6]): 100.923% and 102.486%
- Percent Activity (normalized initial velocity of FRET1 hydrolysis) (IDE [2]; [7]): 97.345% and 105.750%
- Percent Activity (normalized initial velocity of FRET1 hydrolysis) (IDE [2]; [8]): 94.256% and 100.607%
- Percent Activity (normalized initial velocity of FRET1 hydrolysis) (IDE [2]; [9]): 90.993% and 91.075%
- Percent Activity (normalized initial velocity of FRET1 hydrolysis) (IDE [2]; [10]): 24.626% and 23.530%
- Percent activity at 500 uM, Mean (IDE [3]; [13]): 6.4%
- Percent activity at 500 uM, Mean (IDE [3]; judged as IC50 <100 uM?): 29.8%
Compound: WCYPHCVT [P12-3C]
